Reference: ChEMBL document CHEMBL3991601, “The target landscape of clinical kinase drugs” (Science, 2017)
The source made the active and inactive calls.

Assays:
[1] = target: Actin-related protein 2 (Homo sapiens, UniProt P61160)
[2] = target: T1, Adenine phosphoribosyltransferase (Homo sapiens, UniProt P07741)
T1 sequence (P07741 whole entry): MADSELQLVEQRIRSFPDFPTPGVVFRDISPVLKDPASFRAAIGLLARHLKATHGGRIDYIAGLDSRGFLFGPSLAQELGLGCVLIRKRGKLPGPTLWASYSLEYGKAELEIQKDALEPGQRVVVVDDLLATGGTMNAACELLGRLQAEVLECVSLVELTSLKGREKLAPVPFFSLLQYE

[3] = target: Citron Rho-interacting kinase (Homo sapiens, UniProt O14578)
[4] = target: DnaJ homolog subfamily A member 1 (Homo sapiens, UniProt P31689)
[5] = target: Ephrin type-A receptor 2 (Homo sapiens, UniProt P29317)
[6] = target: Guanine nucleotide-binding protein G(i) subunit alpha-2 (Homo sapiens, UniProt P04899)
[7] = target: LIM domain kinase 2 (Homo sapiens, UniProt P53671)
[8] = target: T2, Serine/threonine-protein kinase Nek9 (Homo sapiens, UniProt Q8TD19)
T2 sequence (Q8TD19 whole entry): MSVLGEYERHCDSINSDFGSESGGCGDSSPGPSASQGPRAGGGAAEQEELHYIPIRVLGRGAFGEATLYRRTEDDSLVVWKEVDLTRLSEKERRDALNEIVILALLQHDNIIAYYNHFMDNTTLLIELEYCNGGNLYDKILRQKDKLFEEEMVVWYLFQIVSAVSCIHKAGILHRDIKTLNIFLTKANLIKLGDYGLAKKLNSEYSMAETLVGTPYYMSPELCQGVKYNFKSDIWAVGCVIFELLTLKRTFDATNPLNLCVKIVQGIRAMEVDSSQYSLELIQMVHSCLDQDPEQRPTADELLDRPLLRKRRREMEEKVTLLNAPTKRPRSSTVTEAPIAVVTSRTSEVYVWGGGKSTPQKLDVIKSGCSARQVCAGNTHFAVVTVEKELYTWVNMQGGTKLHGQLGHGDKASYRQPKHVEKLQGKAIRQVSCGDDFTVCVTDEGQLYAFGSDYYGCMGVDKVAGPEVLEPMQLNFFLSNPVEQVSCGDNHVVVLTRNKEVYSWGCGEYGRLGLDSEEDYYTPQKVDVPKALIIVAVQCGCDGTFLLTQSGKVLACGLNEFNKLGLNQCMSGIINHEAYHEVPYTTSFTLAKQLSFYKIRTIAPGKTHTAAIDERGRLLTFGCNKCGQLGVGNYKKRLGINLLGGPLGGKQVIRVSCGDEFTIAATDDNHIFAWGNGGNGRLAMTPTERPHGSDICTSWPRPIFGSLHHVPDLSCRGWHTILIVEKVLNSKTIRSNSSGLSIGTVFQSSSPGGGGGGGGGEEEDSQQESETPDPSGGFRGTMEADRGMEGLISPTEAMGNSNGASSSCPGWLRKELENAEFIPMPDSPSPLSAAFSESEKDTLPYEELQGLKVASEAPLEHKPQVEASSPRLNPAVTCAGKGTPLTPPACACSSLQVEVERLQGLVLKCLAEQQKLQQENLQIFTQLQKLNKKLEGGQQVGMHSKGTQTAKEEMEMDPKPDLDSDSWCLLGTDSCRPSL

[9] = target: Obg-like ATPase 1 (Homo sapiens, UniProt Q9NTK5)
[10] = target: T3, Succinate--CoA ligase [ADP-forming] subunit beta, mitochondrial (Homo sapiens, UniProt Q9P2R7)
T3 sequence (Q9P2R7 whole entry): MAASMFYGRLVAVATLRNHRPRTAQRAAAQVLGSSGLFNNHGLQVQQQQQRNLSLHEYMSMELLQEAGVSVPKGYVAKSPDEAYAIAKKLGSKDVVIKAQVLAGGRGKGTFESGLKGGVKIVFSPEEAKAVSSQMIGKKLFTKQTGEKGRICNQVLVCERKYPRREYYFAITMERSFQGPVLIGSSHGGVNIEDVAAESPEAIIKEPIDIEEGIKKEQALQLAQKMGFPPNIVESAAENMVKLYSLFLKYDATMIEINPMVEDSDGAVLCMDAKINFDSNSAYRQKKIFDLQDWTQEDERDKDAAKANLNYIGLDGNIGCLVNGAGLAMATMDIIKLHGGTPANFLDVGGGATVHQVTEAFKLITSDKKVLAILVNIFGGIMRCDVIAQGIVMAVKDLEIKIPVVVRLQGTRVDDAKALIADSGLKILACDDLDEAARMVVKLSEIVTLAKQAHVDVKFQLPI

[11] = target: T4, EKC/KEOPS complex subunit TP53RK (Homo sapiens, UniProt Q96S44)
T4 sequence (Q96S44 whole entry): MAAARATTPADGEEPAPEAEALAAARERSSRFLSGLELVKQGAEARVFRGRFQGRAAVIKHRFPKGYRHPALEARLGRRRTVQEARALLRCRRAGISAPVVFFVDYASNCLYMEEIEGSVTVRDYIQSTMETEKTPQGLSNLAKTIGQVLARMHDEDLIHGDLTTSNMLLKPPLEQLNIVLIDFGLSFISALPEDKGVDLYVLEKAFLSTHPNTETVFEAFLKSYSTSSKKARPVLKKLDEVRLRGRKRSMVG
Also: in the data inactive means no Kd found up to 30 µM.

Chain of Citron Rho-interacting kinase (O14578 whole entry): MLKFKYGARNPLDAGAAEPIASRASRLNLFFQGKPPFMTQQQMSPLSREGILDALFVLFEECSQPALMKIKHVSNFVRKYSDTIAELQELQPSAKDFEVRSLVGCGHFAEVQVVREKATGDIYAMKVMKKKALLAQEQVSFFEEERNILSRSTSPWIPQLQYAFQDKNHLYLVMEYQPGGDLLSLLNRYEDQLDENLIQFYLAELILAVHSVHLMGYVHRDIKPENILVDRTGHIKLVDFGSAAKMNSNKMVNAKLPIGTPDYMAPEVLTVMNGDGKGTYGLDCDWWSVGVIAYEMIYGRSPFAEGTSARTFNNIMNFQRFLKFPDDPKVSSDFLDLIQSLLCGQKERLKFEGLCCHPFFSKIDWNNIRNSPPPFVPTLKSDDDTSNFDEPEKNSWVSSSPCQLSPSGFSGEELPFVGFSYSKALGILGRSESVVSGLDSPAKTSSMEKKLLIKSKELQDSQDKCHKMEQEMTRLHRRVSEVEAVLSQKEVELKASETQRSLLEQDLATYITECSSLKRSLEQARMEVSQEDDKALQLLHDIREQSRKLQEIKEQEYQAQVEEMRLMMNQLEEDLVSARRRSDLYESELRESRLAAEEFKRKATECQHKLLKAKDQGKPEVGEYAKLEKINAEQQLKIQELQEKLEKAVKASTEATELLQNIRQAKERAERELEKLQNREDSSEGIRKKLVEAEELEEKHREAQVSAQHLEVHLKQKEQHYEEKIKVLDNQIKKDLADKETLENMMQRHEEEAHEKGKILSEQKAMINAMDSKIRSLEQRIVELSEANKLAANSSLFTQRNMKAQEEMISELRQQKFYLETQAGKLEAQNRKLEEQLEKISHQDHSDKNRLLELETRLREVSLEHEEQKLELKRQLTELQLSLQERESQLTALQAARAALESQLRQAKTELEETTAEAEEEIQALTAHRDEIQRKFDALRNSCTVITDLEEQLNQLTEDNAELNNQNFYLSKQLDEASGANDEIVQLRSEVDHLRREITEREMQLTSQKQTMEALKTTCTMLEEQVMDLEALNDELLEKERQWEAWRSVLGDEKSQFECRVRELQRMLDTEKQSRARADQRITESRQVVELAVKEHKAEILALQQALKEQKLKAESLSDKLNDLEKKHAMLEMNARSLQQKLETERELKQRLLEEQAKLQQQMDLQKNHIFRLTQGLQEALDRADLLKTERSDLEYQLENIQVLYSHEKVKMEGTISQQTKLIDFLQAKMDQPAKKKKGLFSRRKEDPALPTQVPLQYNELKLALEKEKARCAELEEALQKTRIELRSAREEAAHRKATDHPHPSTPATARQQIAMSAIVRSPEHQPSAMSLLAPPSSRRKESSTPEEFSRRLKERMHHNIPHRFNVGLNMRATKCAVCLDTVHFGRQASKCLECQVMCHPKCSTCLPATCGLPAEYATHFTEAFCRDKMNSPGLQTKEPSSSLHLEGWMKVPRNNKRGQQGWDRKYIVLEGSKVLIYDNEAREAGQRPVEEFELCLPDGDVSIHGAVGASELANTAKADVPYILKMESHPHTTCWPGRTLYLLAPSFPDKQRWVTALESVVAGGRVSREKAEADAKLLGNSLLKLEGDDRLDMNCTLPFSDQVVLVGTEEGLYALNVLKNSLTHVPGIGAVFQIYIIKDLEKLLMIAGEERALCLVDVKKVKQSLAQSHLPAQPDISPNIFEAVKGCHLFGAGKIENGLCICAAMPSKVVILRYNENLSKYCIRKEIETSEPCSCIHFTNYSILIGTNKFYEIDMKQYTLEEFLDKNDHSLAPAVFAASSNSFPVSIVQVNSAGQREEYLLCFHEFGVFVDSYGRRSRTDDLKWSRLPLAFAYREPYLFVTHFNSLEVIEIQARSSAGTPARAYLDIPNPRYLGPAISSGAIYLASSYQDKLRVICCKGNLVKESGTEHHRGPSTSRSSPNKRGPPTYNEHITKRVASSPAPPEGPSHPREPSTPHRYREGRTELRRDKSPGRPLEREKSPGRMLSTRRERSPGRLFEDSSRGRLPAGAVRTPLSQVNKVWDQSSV
Chain of Guanine nucleotide-binding protein G(i) subunit alpha-2 (P04899 whole entry, the tested form may be a part): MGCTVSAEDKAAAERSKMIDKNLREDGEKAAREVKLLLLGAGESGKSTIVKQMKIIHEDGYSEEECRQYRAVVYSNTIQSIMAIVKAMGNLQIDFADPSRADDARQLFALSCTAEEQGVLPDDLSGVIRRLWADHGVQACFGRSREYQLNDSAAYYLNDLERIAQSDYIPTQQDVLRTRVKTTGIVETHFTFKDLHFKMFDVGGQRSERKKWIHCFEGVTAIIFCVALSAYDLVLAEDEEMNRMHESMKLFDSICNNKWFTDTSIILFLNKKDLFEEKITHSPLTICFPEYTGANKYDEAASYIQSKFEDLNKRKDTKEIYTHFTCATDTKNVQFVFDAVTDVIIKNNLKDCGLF
Chain of Obg-like ATPase 1 (Q9NTK5 whole entry, looked up): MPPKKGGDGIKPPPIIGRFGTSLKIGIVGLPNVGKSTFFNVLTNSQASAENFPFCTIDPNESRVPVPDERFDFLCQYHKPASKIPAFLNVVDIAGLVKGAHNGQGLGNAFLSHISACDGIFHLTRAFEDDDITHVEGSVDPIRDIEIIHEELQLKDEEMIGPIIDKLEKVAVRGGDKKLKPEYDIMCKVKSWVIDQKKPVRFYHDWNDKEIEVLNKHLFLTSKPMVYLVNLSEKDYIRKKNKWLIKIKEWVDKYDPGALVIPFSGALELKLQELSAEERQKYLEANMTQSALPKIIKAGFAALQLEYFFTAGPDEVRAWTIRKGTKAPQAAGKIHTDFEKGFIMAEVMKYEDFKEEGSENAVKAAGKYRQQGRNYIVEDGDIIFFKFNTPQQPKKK
Chain of LIM domain kinase 2 (P53671 whole entry, the tested form may be a part): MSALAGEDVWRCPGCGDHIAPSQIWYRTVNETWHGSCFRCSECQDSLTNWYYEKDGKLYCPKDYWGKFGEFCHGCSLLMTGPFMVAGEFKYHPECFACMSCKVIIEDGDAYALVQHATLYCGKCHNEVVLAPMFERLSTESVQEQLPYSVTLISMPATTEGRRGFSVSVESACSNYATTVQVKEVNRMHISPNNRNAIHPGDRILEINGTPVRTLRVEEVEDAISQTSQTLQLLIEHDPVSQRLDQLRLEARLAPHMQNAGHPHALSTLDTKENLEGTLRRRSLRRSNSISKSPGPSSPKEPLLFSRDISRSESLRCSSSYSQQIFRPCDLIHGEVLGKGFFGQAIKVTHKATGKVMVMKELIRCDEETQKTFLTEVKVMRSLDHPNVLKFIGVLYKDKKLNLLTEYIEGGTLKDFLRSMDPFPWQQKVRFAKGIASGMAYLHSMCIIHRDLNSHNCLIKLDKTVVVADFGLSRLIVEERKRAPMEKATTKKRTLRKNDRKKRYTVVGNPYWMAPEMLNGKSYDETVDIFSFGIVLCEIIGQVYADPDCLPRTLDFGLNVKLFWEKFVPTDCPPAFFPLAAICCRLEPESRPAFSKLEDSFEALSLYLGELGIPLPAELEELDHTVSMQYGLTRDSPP
Chain of DnaJ homolog subfamily A member 1 (P31689 whole entry): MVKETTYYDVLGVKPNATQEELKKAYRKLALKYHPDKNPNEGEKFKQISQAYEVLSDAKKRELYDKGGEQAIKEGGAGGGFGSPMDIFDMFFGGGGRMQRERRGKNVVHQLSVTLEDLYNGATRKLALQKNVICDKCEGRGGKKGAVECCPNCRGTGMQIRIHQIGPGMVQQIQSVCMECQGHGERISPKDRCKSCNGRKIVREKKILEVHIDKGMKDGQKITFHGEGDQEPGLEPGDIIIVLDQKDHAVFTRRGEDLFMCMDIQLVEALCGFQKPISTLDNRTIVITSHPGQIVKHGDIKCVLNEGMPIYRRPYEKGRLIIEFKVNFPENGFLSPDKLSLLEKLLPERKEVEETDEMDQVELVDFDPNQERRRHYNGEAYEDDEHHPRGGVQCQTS
Chain of Ephrin type-A receptor 2 (P29317 whole entry): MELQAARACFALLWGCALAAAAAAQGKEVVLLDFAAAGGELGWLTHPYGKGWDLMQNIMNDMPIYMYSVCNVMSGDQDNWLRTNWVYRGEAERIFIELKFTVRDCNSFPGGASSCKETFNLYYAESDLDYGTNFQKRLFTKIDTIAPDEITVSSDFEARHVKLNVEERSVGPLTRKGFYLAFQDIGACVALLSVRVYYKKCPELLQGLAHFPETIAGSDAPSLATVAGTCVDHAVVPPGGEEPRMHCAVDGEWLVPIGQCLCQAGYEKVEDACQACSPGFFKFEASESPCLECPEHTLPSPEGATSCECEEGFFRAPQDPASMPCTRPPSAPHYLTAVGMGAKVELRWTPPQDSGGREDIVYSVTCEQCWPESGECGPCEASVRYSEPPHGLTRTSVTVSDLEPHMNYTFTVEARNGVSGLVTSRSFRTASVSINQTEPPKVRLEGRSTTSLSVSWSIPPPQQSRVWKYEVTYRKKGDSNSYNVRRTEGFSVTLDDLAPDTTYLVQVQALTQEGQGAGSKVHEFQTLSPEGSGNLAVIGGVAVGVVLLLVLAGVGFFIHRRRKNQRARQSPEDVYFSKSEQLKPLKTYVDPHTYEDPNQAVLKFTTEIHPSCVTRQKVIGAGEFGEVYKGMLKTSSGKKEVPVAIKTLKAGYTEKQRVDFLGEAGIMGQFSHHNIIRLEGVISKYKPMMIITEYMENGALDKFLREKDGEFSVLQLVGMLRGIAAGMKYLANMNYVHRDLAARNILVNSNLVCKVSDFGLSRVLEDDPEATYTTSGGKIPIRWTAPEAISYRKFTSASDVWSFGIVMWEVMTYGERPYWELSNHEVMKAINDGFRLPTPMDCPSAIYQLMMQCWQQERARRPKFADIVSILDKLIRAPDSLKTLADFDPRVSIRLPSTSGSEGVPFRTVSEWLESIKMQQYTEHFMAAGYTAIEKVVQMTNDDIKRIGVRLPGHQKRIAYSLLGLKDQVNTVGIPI

| Compound | Kd [1] | Kd [2] | Kd [3] | Kd [4] | Kd [5] | Kd [6] | Kd [7] | Kd [8] | Kd [9] | Kd [10] | Kd [11] |
| --- | --- | --- | --- | --- | --- | --- | --- | --- | --- | --- | --- |
| CCNC(=O)C#Cc1ccc2c(c1)NC(=O)/C2=C(\Nc1ccc(CN(C)C)cc1)c1ccccc1 | > 30 µM (inactive) | > 30 µM (inactive) | > 30 µM (inactive) | > 30 µM (inactive) | > 30 µM (inactive) | > 30 µM (inactive) | > 30 µM (inactive) | > 30 µM (inactive) | > 30 µM (inactive) | > 30 µM (inactive) | > 30 µM (inactive) |
| Cc1nc2cc(-c3nn(C(C)C)c4ncnc(N)c34)ccc2o1 | > 30 µM (inactive) | > 30 µM (inactive) | > 30 µM (inactive) | > 30 µM (inactive) | > 30 µM (inactive) | > 30 µM (inactive) | > 30 µM (inactive) | > 30 µM (inactive) | > 30 µM (inactive) | > 30 µM (inactive) | > 30 µM (inactive) |
| Cc1nc(NC(=O)N2CCC[C@H]2C(N)=O)sc1-c1ccnc(C(C)(C)C(F)(F)F)c1 [ALPELISIB] | > 30 µM (inactive) | > 30 µM (inactive) | > 30 µM (inactive) | > 30 µM (inactive) | > 30 µM (inactive) | > 30 µM (inactive) | > 30 µM (inactive) | > 30 µM (inactive) | > 30 µM (inactive) | > 30 µM (inactive) | > 30 µM (inactive) |
| COc1cc([C@@H]2c3cc4c(cc3[C@H](O)[C@H]3COC(=O)[C@@H]23)OCO4)cc(OC)c1OC [AXL-1717] | > 30 µM (inactive) | > 30 µM (inactive) | > 30 µM (inactive) | > 30 µM (inactive) | > 30 µM (inactive) | > 30 µM (inactive) | > 30 µM (inactive) | > 30 µM (inactive) | > 30 µM (inactive) | > 30 µM (inactive) | > 30 µM (inactive) |
| Cn1cnc2c(F)c(Nc3ccc(Br)cc3F)c(C(=O)NOCCO)cc21 [BINIMETINIB] | > 30 µM (inactive) | > 30 µM (inactive) | > 30 µM (inactive) | > 30 µM (inactive) | > 30 µM (inactive) | > 30 µM (inactive) | > 30 µM (inactive) | > 30 µM (inactive) | > 30 µM (inactive) | > 30 µM (inactive) | > 30 µM (inactive) |
| COc1c(OCCCN2CCOCC2)ccc2c1N=C(NC(=O)c1cnc(N)nc1)N1CCN=C21 [COPANLISIB] | > 30 µM (inactive) | > 30 µM (inactive) | > 30 µM (inactive) | > 30 µM (inactive) | > 30 µM (inactive) | > 30 µM (inactive) | > 30 µM (inactive) | > 30 µM (inactive) | > 30 µM (inactive) | > 30 µM (inactive) | > 30 µM (inactive) |
| COCC(=O)NC/C=C/c1ccc2ncnc(Nc3ccc(Oc4ccc(C)nc4)c(C)c3)c2c1 [CP-724714] | > 30 µM (inactive) | > 30 µM (inactive) | > 30 µM (inactive) | > 30 µM (inactive) | > 30 µM (inactive) | > 30 µM (inactive) | > 30 µM (inactive) | > 30 µM (inactive) | > 30 µM (inactive) | > 30 µM (inactive) | > 30 µM (inactive) |
| CNC(=O)c1cccc2cc(Oc3ccnc4cc(OCC5(N)CC5)c(OC)cc34)ccc12 [LUCITANIB] | > 30 µM (inactive) | > 30 µM (inactive) | > 30 µM (inactive) | > 30 µM (inactive) | > 30 µM (inactive) | > 30 µM (inactive) | > 30 µM (inactive) | > 30 µM (inactive) | > 30 µM (inactive) | > 30 µM (inactive) | > 30 µM (inactive) |
| CN(C[C@@H]1COCCO1)S(=O)(=O)Nc1ccc2ccc3ncc(-c4cnn(C)c4)cc3c(=O)c2c1 [MK-2461] | > 30 µM (inactive) | > 30 µM (inactive) | > 30 µM (inactive) | > 30 µM (inactive) | > 30 µM (inactive) | > 30 µM (inactive) | > 30 µM (inactive) | > 30 µM (inactive) | > 30 µM (inactive) | > 30 µM (inactive) | > 30 µM (inactive) |
| CCOc1cc2ncc(C#N)c(Nc3ccc(F)c(Cl)c3)c2cc1NC(=O)/C=C/CN(C)C [PELITINIB] | > 30 µM (inactive) | > 30 µM (inactive) | > 30 µM (inactive) | > 30 µM (inactive) | > 30 µM (inactive) | > 30 µM (inactive) | > 30 µM (inactive) | > 30 µM (inactive) | > 30 µM (inactive) | > 30 µM (inactive) | > 30 µM (inactive) |
| Cc1nc(Nc2n[nH]c3c2CN(C(=O)N[C@H](CN(C)C)c2ccccc2)C3(C)C)c2sccc2n1 [PF-03758309] | > 30 µM (inactive) | > 30 µM (inactive) | > 30 µM (inactive) | > 30 µM (inactive) | > 30 µM (inactive) | > 30 µM (inactive) | > 30 µM (inactive) | > 30 µM (inactive) | > 30 µM (inactive) | > 30 µM (inactive) | > 30 µM (inactive) |
| O=c1[nH]ccc2cc(OC3CCNCC3)ccc12 [SAR-407899 FREE BASE] | > 30 µM (inactive) | > 30 µM (inactive) | > 30 µM (inactive) | > 30 µM (inactive) | > 30 µM (inactive) | > 30 µM (inactive) | > 30 µM (inactive) | > 30 µM (inactive) | > 30 µM (inactive) | > 30 µM (inactive) | > 30 µM (inactive) |
| CCS(=O)(=O)c1cccc(-c2cc(C(=O)NC3CCN(C)CC3)c(C)c3[nH]c4ncc(C)cc4c23)c1 [TAK-901] | > 30 µM (inactive) | > 30 µM (inactive) | > 30 µM (inactive) | > 30 µM (inactive) | 0.178 µM (active) | > 30 µM (inactive) | > 30 µM (inactive) | > 30 µM (inactive) | > 30 µM (inactive) | > 30 µM (inactive) | > 30 µM (inactive) |
| CO[C@H]1C[C@@H]2CC[C@@H](C)[C@@](O)(O2)C(=O)C(=O)N2CCCC[C@H]2C(=O)O[C@H]([C@H](C)C[C@@H]2CC[C@@H](OC(=O)C(C)(CO)CO)[C@H](OC)C2)CC(=O)[C@H](C)/C=C(\C)[C@@H](O)[C@@H](OC)C(=O)[C@H](C)C[C@H](C)/C=C/C=C/C=C/1C [TEMSIROLIMUS] | > 30 µM (inactive) | > 30 µM (inactive) | > 30 µM (inactive) | > 30 µM (inactive) | > 30 µM (inactive) | > 30 µM (inactive) | > 30 µM (inactive) | > 30 µM (inactive) | > 30 µM (inactive) | > 30 µM (inactive) | > 30 µM (inactive) |
